# Laboratory results from patent publication US9932327B2, “Rohitukine analogs as cyclin-dependent kinase inhibitors and a process for the preparation thereof” (COUNCIL OF SCIENTIFIC AND INDUSTRIAL RESEARCH, priority 2013, dated 2018).
# Read-outs that look alike come from different tables or passages of the source.
# Legend:
# CDK-9/Cyclin T1 = CDK-9/Cyclin T1 (Homo sapiens (Human), UniProt P50750); test: Inhibition of CDK-9/cyclin T1; conditions: IC50 (nM) CDK-9/T1
# Experimental: (50-1000 cpm/pmole) and incubated for 30 mM at room temperature. Assays were stopped by addition of 5 μl of 0.5 M (3%) orthophosphoric acid and then harvested onto P81 Unifilter plates with a wash buffer of 50 mM orthophosphoric acid.
# CDK-2/cyclin A = CDK-2/cyclin A (Homo sapiens (Human), UniProt P24941); test: Inhibition of CDK-2/cyclin A; assay type: biochemical
# [1] = Thermodynamic equilibrium solubility; assay type: physicochemical; conditions: 25 °C, thermodynamic from solid
# Experimental: The compounds were first dissolved in methanol to prepare stock solutions (100 and 1000 μg/mL). Different concentrations of stock solutions were pipetted into the 96-well plates and the solvent was evaporated to ensure that solid drug was present in the beginning of the experiment. […] The plates were kept overnight for equilibration of drug in medium. Later, the plates were centrifuged at 3000 rpm for 15 min (Jouan centrifuge BR4i). Supernatant (50 μl) was pipetted into UV 96-well plates (Corning® 96 Well Clear Flat Bottom UV-Transparent Microplate) for analyses with plate reader (SpectraMax Plus384) at λmax of 350 nm. The analyses were performed in triplicate for each compound. The solubility curve of concentration (μg/mL) vs absorbance was plotted to find out saturation point and the corresponding concentration was noted (Heikkilä, T. et al. Int. J. Pharm. 2011, 405, 132).
# HL-60 (Leukemia) = test: Cytotoxicity, MTT assay, HL-60; assay type: cell-based; conditions: Homo sapiens; for inhibition at 10 µM: read-out: Cell Growth Inhibition (%)
# Experimental: (§1) Compounds proposed in the present invention were evaluated for their cytotoxic effect against panel of six cancer cell line viz. HL-60 (Leukemia), PC-3 (Prostate), A-375 (Melanoma), MIAPaCa-2 (pancreatic), MCF-7 (Breast) and Caco-2 (Colon) using MTT assay. In each well of a 96-well plate, 3×10^3 cells were grown in 100 μL of medium. After 24 h, each test molecules were added to achieve a final concentration of 10 to 0.01 μmol/L, respectively. After 48 h of treatment, 20 μL of 2.5 mg/mL MTT (Organics Research, Inc.) solution in phosphate buffer saline was added to each well. After 48 h, supernatant was removed and formazan crystals were dissolved in 200 μL of DMSO. Absorbance was then measured at 570 nm using an absorbance plate reader (Bio-Rad Microplate Reader). Data are expressed as the percentage of viable cells in treated relative to non-treated conditions.
# Caco-2 (Colon) = test: Cytotoxicity, MTT assay, Caco-2; assay type: cell-based; conditions: Homo sapiens; for inhibition at 10 µM: read-out: Cell Growth Inhibition (%)
# Experimental: as §1
# MCF-7 (Breast) = test: Cytotoxicity, MTT assay, MCF-7; assay type: cell-based; conditions: Homo sapiens; for IC50: MCF7; for inhibition at 10 µM: MCF7, 10 μM, read-out: Cell Growth Inhibition (%)
# Experimental: as §1
# A-375 (Melanoma) = test: Cytotoxicity, MTT assay, A-375; assay type: cell-based; conditions: Homo sapiens; for inhibition at 10 µM: read-out: Cell Growth Inhibition (%)
# Experimental: as §1
# PC-3 (Prostate) = test: Cytotoxicity, MTT assay, PC-3; assay type: cell-based; conditions: for inhibition at 10 µM: read-out: Cell Growth Inhibition (%)
# Experimental: as §1
# MIAPaCa-2 (pancreatic) = test: Cytotoxicity, MTT assay, MIAPaCa-2; assay type: cell-based; conditions: Homo sapiens, MIA PaCa-2, read-out: Cell Growth Inhibition (%)
# Experimental: as §1
# CDK1/cyclin B = conditions: Gray, N. et al. Curr. Med. Chem. 1999, 6, 859; cited from earlier work
# [2] = test system: Ehrlich solid tumor (EAC cells); test: In vivo anticancer activity in Ehrlich solid tumor mice model; parameters: species or system Swiss mice
# Experimental: Ehrlich ascites carcinoma (EAC) cells were collected from the peritoneal cavity of the swiss mice harbouring 8-10 days old ascitic tumor. 1×10^7 EAC cells were injected intramuscularly in right thigh of 31 Swiss male mice selected for the experiment on day 0. The next day, animals were randomized and divided into four groups. Three treatment groups contained 7 animals each and one control group contained 10 animals. Treatment was given as follows:
# Group I: Compound 33 (50 mg/kg i/p) from day 1-9.
# Group II: Compound 33 (70 mg/kg i/p) from day 1-9.
# The third treatment group was treated with 5-fluorouracil (22 mg/kg, i.p) from day 1-9 and it served as positive control. The control group was similarly administered normal saline (0.2 ml, i.p.) from day 1-9. On day 9 & 13, tumor bearing thigh of each animal was shaved and longest and shortest diameters of the tumor were measured with the help of vernier caliper. Tumor weight of each animal was calculated using the following formula.
# The percent tumor growth inhibition was calculated on day 13 by comparing the average values of treated groups with that of control group. Tumor growth in saline treated control animals was taken to be 100%.
# [3] = water, 25±1° C., read-out: Solubility in μg/mL, Water
# [4] = phosphate buffer saline (PBS), aqueous buffer, read-out: Solubility in μg/mL, PBS
# [5] = simulated gastric fluid (SGF), simulated gastric fluid, read-out: Solubility in μg/mL, SGF
# [6] = simulated intestinal fluid (SIF), fassgf or other biorelevant, read-out: Solubility in μg/mL, SIF
# [7] = 22 mg/kg i/p day 1-9, positive control
# CDK-9/Cyclin T1, sequence (P50750 whole entry): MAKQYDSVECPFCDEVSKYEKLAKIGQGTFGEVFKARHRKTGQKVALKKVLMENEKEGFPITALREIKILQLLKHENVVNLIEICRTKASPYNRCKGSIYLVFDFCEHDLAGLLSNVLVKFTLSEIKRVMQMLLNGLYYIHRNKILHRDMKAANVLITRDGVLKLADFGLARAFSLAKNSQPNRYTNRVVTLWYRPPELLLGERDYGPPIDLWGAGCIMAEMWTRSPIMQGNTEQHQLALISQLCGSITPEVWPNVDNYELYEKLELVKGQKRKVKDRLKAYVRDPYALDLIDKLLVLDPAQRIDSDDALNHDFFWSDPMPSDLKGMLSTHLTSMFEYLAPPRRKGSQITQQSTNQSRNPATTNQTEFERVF
# CDK-9/Cyclin T1, sequence (O60563 whole entry partner): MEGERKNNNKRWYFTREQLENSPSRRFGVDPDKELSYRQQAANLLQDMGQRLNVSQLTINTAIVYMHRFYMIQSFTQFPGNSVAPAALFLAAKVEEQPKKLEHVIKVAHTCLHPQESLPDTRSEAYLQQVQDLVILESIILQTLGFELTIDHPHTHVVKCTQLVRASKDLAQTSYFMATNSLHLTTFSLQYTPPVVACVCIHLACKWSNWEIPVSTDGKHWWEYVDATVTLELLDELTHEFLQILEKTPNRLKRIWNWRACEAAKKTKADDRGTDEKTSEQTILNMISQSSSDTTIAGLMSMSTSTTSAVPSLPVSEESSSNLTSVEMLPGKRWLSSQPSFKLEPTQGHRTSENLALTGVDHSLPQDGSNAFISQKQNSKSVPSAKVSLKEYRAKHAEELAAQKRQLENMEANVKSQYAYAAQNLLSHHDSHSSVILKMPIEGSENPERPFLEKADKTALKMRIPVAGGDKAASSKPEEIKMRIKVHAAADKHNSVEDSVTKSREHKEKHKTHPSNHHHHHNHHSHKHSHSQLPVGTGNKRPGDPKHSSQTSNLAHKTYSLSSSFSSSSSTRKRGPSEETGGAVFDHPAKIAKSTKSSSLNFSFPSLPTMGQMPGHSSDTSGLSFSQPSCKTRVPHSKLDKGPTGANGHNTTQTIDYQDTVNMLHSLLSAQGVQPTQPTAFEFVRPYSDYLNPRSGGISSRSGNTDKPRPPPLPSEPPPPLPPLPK
SMILES,IC50 (CDK-9/Cyclin T1) [nM],IC50 (CDK-2/cyclin A) [nM],"solubility [1, 3] [µg/mL]","solubility [1, 4] [µg/mL]","solubility [1, 5] [µg/mL]","solubility [1, 6] [µg/mL]",IC50 (HL-60 (Leukemia)) [µM],IC50 (PC-3 (Prostate)) [µM],other results
"CN1CCC(c2c(O)cc(O)c3c(=O)cc(/C=C/c4cccc(F)c4)oc23)C(O)C1 (stereo not shown) [Compound 35, 2-(3-fluorostyryl)-5,7-dihydroxy-8-(3-hydroxy-1-methylpiperidin-4-yl)-4H-chromen-4-one]",30,466,,,,,,,
"CN1CCC(c2c(O)cc(O)c3c(=O)cc(/C=C/c4c(Cl)cccc4Cl)oc23)C(O)C1.Cl (stereo not shown) [Hydrochloride salt of 33, 2-(2,6-dichlorostyryl)-5,7-dihydroxy-8-(3-hydroxy-1-methylpiperidin-4-yl)-4H-chromen-4-one hydrochloride]",,,> 1500,40,40,10,,,
"CN1CCC(c2c(O)cc(O)c3c(=O)cc(/C=C/c4c(F)c(F)c(F)c(F)c4F)oc23)C(O)C1.Cl (stereo not shown) [Hydrochloride salt of 34, 2-(2,3,4,5,6-pentafluorostyryl)-5,7-dihydroxy-8-(3-hydroxy-1-methylpiperidin-4-yl)-4H-chromen-4-one hydrochloride]",,,> 1500,40,80,40,,,
"CN1CCC(c2c(O)cc(O)c3c(=O)cc(/C=C/c4c(F)c(F)c(F)c(F)c4F)oc23)C(O)C1 (stereo not shown) [Compound 34, 2-(2,3,4,5,6-pentafluorostyryl)-5,7-dihydroxy-8-(3-hydroxy-1-methylpiperidin-4-yl)-4H-chromen-4-one]",12,608,5,10,80,20,3,30,IC50 (Caco-2 (Colon)): 7 µM; IC50 (MCF-7 (Breast)): 4 µM; IC50 (A-375 (Melanoma)): 8 µM
"Cc1cc(=O)c2c(O)cc(O)c(C3CCN(C)CC3O)c2o1 (stereo not shown) [Compound 1, 5,7-dihydroxy-8-(3-hydroxy-1-methylpiperidin-4-yl)-2-methyl-4H-chromen-4-one, reference compound]",550,> 10000,,,,,6,,inhibition at 10 µM (MIAPaCa-2 (pancreatic)): 1.46%; inhibition at 10 µM (HL-60 (Leukemia)): 83.3%; inhibition at 10 µM (Caco-2 (Colon)): 11.9%; inhibition at 10 µM (MCF-7 (Breast)): 15.4%; inhibition at 10 µM (A-375 (Melanoma)): 41.2%; inhibition at 10 µM (PC-3 (Prostate)): 32.9%
CN(C)c1ncnc2nc[nH]c12 [dimethylaminopurine],,,,,,,,,IC50 (CDK1/cyclin B): 120 µM
"CN1CCC(c2c(O)cc(O)c3c(=O)cc(/C=C/c4c(Cl)cccc4Cl)oc23)C(O)C1 (stereo not shown) [Compound 33, 2-(2,6-dichlorostyryl)-5,7-dihydroxy-8-(3-hydroxy-1-methylpiperidin-4-yl)-4H-chromen-4-one]",2,16,5,5,40,20,0.9,41,Day 13 % Tumor Growth Inhibition ([2]; 50 mg/kg i/p day 1-9): 33.11%; Day 13 Av. Tumor weights ([2]; 50 mg/kg i/p day 1-9): 989.12 mg; Mortality ([2]; 50 mg/kg i/p day 1-9): 0/7; Day 13 % Tumor Growth Inhibition ([2]; 70 mg/kg i/p day 1-9): 37.65%; Day 13 Av. Tumor weights ([2]; 70 mg/kg i/p day 1-9): 922.0 mg; Mortality ([2]; 70 mg/kg i/p day 1-9): 0/7; IC50 (Caco-2 (Colon)): 7 µM; IC50 (MCF-7 (Breast)): 4 µM; IC50 (A-375 (Melanoma)): 8 µM
"O=c1[nH]cc(F)c(=O)[nH]1 [Compound 5-FU, 5-fluorouracil, reference compound]",,,,,,,,,"Day 13 % Tumor Growth Inhibition [2, 7]: 58.50%; Day 13 Av. Tumor weights [2, 7]: 613.71 mg; Mortality [2, 7]: 0/7"
"CN1CCC(c2c(O)cc(O)c3c(=O)cc(/C=C/c4c5ccccc5cc5ccccc45)oc23)C(O)C1 (stereo not shown) [Compound 29, 2-((E)-2-(Anthracen-10-yl)vinyl)-5,7-dihydroxy-8-(3-hydroxy-1-methylpiperidin-4-yl)-4H-chromen-4-one]",,,,,,,,12,inhibition at 10 µM (MIAPaCa-2 (pancreatic)): 17%; inhibition at 10 µM (HL-60 (Leukemia)): 12.1%; inhibition at 10 µM (Caco-2 (Colon)): 0%; inhibition at 10 µM (MCF-7 (Breast)): 12.7%; inhibition at 10 µM (A-375 (Melanoma)): 4.96%; inhibition at 10 µM (PC-3 (Prostate)): 50.5%
